# According to patent US20090325891A1, “Cartilage regeneration-promoting agent” (EISAI FOOD & CHEMICAL CO., LTD., priority 2006, published 2009):
# Values joined by “and” are separate entries in the source; they are usually repeats but may differ in a detail not shown here. Equal entries are not always repeated. “Also recorded” adds a separate entry of the source.
# Experiments:
# [1] = tested on: articular cartilage injury of the knee in rabbits; experiment: Macroscopic degree of healing in rabbit articular cartilage injury model; format: in vivo; conditions: for Degree of healing Distal trochlear sulcus / Degree of healing Medial trochlear ridge / Degree of healing Proximal trochlear sulcus: individual rabbits, 3 weeks after operation; for average value of quantified data (degree of healing, points): − = 0 to +++ = 3 points
# Description: The cartilage regeneration-promoting effect of hydroxytyrosol obtained in Production Example 1 was investigated using a rabbit articular cartilage injury model prepared experimentally.
# Six female and six male rabbits (New Zealand white, 16 weeks old when introduced, body weight: from 2.00 kg to 2.55 kg) were habituated for one week under the conditions of one rabbit per cage, temperature: from 23° C. to 25° C., relative humidity: from 50% to 60%, a light/dark cycle of 12 h, 12 times air changes per hour). During this period, animals were fed with feed, which is sold commercially, and sterile tap water ad libitum.
# After the period, rabbits were divided at random into two groups so that each group contains three female and three male rabbits. One group was designated as a control group and the other as a hydroxytyrosol administration group (hereinafter, HT group).
# (§1) The rabbit articular cartilage injury model was prepared based on the method of Hashida et. al. (See, Macromolecular Bioscience, 3, (2003) 596-603), and Tamai et. al. (See, Carbohydrate Polymers, 48, (2002) 369-378, and Carbohydrate Polymers, 54, (2003) 251-262).
# (§2) Initially, each animal was anesthetized by injecting pentobarbital sodium (40 mg/kg) intraperitoneally. Next, hairs at the knee joint of the left hind limb of the animal were clipped and disinfected with 0.5% chlorhexidine gluconate solution and 70% ethanol solution. Then, an incision was made on the skin on the lateral portion of the knee joint from the central part of the femur toward the tibial tuberosity. The articular capsule was exposed and incised. Further, the knee joint was exposed completely by dislocating the patella toward the medial side. Three holes of 2 mm size in diameter and 4 mm in depth were made by using a handdrill one at the medial trochlear ridge and two at the trochlear sulcus of the femur. The incised portion was washed with sterile saline solution and the articular capsule, and at the same time, the subcutaneous tissues and the skin were sutured with a synthetic absorbent thread and with nylon thread, respectively. During one week after the operation, the sutured portion of the skin was disinfected by povidone-iodine once a day and 10 mg/kg of oxytetracycline hydrochloride was subcutaneously administered twice a day.
# (§3) After the formation of injury to articular cartilage, for the HT group, the product containing 20% by mass of hydroxytyrosol obtained in Production Example 1 was dissolved in tap water and administered using a water bottle at a rate of 500 mg/kg (100 mg/kg of hydroxytyrosol) per day for 21 days. After making sure that all of the water containing the drug was taken in, rabbits were fed with sterile tap water. The control was fed with sterile tap water ad libitum.
# After the experimental period, all animals were euthanized by overdose using an intravenous injection of pentobarbital sodium (80 mg/kg). Then, knee joints were incised, and the conditions of joint cartilages were macroscopically observed. The degree, to which the injury of cartilage was healed, was evaluated based on the following standards.
# • −: Degree of healing is less than 50% • +: Degree of healing is from 50% to 60% • ++: Degree of healing is from 60% to 80% • +++: Degree of healing is from 80% to 100%
# Further, the above evaluation was assigned numbers: (−) was assigned with 0 point (+) was assigned with 1 point, (++) was assigned with 2 points, and (+++) was assigned with 3 points. The degree of healing of articular cartilage was expressed numerically, and Mann-Whitney's U test was performed between the control group and the HT group.
# (§4) In the same way as in Example 1, the cartilage regeneration-promoting effects were investigated with respect to hydroxytyrosol (100 mg/kg per day, HT group) and with respect to glucosamine hydrochloride (800 mg/kg per day, hereinafter, GAH group) for comparison. The control group was set in the same way as in Example 1.
# [2] = tested on: lateral vastus muscles and femoral biceps muscles; experiment: Muscle weight ratio (injured side vs opposite side) in rabbit articular cartilage injury model; format: in vivo; conditions: for Muscle weight ratio Femoral biceps muscle, Mean / Muscle weight ratio Lateral vastus muscle, Mean: group mean, 6 rabbits; for Muscle weight ratio Femoral biceps muscle / Muscle weight ratio Lateral vastus muscle: individual rabbits, injured side vs opposite side
# Description: as §1, §2, §3
# For each animal, left and right lateral vastus muscles and femoral biceps muscles were collected, and weights were measured. The muscle weight ratio was calculated by comparing the side, in which cartilage injury was made, with the opposite side, and Student's t-test was performed between the control group and the HT group.
# as §4
# [3] = Observation of general conditions and body weight; format: in vivo, rabbit
# Description: as §3
# During the experimental period, diarrhea, appetite, and hair gloss or coat color of each rabbit were observed. In addition, body weight was measured per week.
# as §4
# Rabbit chondrocytes = experiment: Glycosaminoglycan production in rabbit chondrocytes; format: cell-based; conditions: per number of viable cells; 12 days culture; hydroxytyrosol 100 ng/ml, glucosamine hydrochloride 4 μg/ml
# Description: The promoting effects of hydroxytyrosol and glucosamine hydrochloride on the production of glycosaminoglycan and on the production of hyaluronic acid in chondrocytes were evaluated. Rabbit chondrocytes (rabbit articular chondrocytes in primary culture, F-8, Cell Garage Co., Ltd.) were washed with phosphate buffered saline solution, and then cells were released with 0.05% trypsin-EDTA solution. The released chondrocytes were cultured in DMEM medium containing 10% FBS, 100 U/ml penicillin, 100 μg/ml streptomycin, 100 μM trisodium ascorbyl-2-phosphate (available from SIGMA-ALDRICH Corp.), and 25 mM HEPES (available from Invitrogen Corporation) at 37° C. in a humidified condition with 5% CO2. […] For each group after 12 days culture, the number of viable cells was determined by WST assay. The percentage of the amount of glycosaminoglycan or hyaluronic acid produced by each experimental group, relative to the control group, was calculated according to the following formula: ((amount produced by each experimental group/number of cells of each experimental group)×100)/(amount produced by the control group/number of cells of the control group). The amount of glycosaminoglycan produced by the above-mentioned cultured cells was measured using a measurement kit (acid mucopolysaccharide quantification kit, available from Cell Garage Co., Ltd.).
# [4] = Example 2, HT 100 mg/kg per day, GAH 800 mg/kg per day, hydrochloride, female rabbits
# [5] = Example 2, HT 100 mg/kg per day, GAH 800 mg/kg per day, hydrochloride, male rabbits
# [6] = Example 2, hydrochloride, female rabbits
# [7] = Example 2, hydrochloride, male rabbits
# [8] = Example 1, 100 mg/kg of hydroxytyrosol per day for 21 days, 100 mg/kg
# [9] = Example 2, HT 100 mg/kg per day, GAH 800 mg/kg per day, female rabbits
# [10] = Example 2, HT 100 mg/kg per day, GAH 800 mg/kg per day, male rabbits
compound,measurement,setting,value
"Cl.N[C@H]1C(O)O[C@H](CO)[C@@H](O)[C@@H]1O (stereo partly shown) [GAH group, glucosamine hydrochloride, reference compound]",cartilage healing / regeneration compared with the control group,"[1]; Example 2, HT p<0.01, GAH p<0.05, hydrochloride",promoted significantly
same,cartilage healing / regeneration compared with the control group,"[1]; Example 2, HT p<0.01, GAH p<0.05, listed as glucosamine hydrochloride, hydrochloride",promoted the regeneration of cartilage
same,Degree of healing Distal trochlear sulcus,[1]; [4],++ (Degree of healing is from 60% to 80%); also recorded: +++ (Degree of healing is from 80% to 100%)
same,Degree of healing Medial trochlear ridge,[1]; [4],+++ (Degree of healing is from 80% to 100%)
same,Degree of healing Proximal trochlear sulcus,[1]; [4],++ (Degree of healing is from 60% to 80%); also recorded: +++ (Degree of healing is from 80% to 100%)
same,Degree of healing Distal trochlear sulcus,[1]; [5],++ (Degree of healing is from 60% to 80%); also recorded: + (Degree of healing is from 50% to 60%)
same,Degree of healing Medial trochlear ridge,[1]; [5],+++ (Degree of healing is from 80% to 100%); also recorded: ++ (Degree of healing is from 60% to 80%)
same,Degree of healing Proximal trochlear sulcus,[1]; [5],+ (Degree of healing is from 50% to 60%); also recorded: +++ (Degree of healing is from 80% to 100%)
same,"average value of quantified data (degree of healing, points)","[1]; Example 2, control group 5.33",7.17
same,muscle weight of the femoral biceps muscle (in words),[2]; Example 2,marked decrease
same,muscle weight of the lateral vastus muscle (in words),[2]; Example 2,slight decrease
same,"Muscle weight ratio Femoral biceps muscle, Mean","[2]; Example 2, control 83.80",83.62%
same,"Muscle weight ratio Lateral vastus muscle, Mean","[2]; Example 2, control 91.91",92.03%
same,Muscle weight ratio Femoral biceps muscle,[2]; [6],78.13% and 86.21% and 65.10%
same,Muscle weight ratio Lateral vastus muscle,[2]; [6],82.24% and 96.46% and 90.85%
same,Muscle weight ratio Femoral biceps muscle,[2]; [7],92.37% and 86.12% and 93.81%
same,Muscle weight ratio Lateral vastus muscle,[2]; [7],98.02% and 89.59% and 94.99%
same,Body weight changes vs control group,[3]; Example 2,almost the same as that of the control group
same,general conditions,"[3]; Example 2, HT 100 mg/kg per day, GAH 800 mg/kg per day",change in general conditions was not observed
same,amount of glycosaminoglycan produced compared to the control group,Rabbit chondrocytes,147.0%
"OCCc1ccc(O)c(O)c1 [HT group, 2-(3,4-Dihydroxyphenyl)ethanol]",cartilage healing / regeneration compared with the control group,"[1]; Example 1, Mann-Whitney's U test, p<0.05",promoted significantly
same,cartilage healing / regeneration compared with the control group,"[1]; Example 1, Mann-Whitney's U test, p<0.05, listed as hydroxytyrosol",promoted the regeneration of cartilage
same,Degree of healing Distal trochlear sulcus,[1]; [8],+++ (Degree of healing is from 80% to 100%); also recorded: + (Degree of healing is from 50% to 60%); also recorded: ++ (Degree of healing is from 60% to 80%)
same,Degree of healing Proximal trochlear sulcus,[1]; [8],++ (Degree of healing is from 60% to 80%); also recorded: +++ (Degree of healing is from 80% to 100%); also recorded: + (Degree of healing is from 50% to 60%)
same,Degree of healing Medial trochlear ridge,"[1]; Example 1, 100 mg/kg of hydroxytyrosol per day in drinking water for 21 days, 100 mg/kg",+++ (Degree of healing is from 80% to 100%); also recorded: ++ (Degree of healing is from 60% to 80%); also recorded: + (Degree of healing is from 50% to 60%)
same,"average value of quantified data (degree of healing, points)","[1]; Example 1, control group 4.83",7.17
same,cartilage healing / regeneration compared with the control group,"[1]; Example 2, HT p<0.01, GAH p<0.05",promoted significantly
same,cartilage healing / regeneration compared with the control group,"[1]; Example 2, HT p<0.01, GAH p<0.05, listed as hydroxytyrosol",promoted the regeneration of cartilage
same,Degree of healing Distal trochlear sulcus,[1]; [9],+++ (Degree of healing is from 80% to 100%)
same,Degree of healing Medial trochlear ridge,[1]; [9],+++ (Degree of healing is from 80% to 100%)
same,Degree of healing Proximal trochlear sulcus,[1]; [9],+++ (Degree of healing is from 80% to 100%); also recorded: ++ (Degree of healing is from 60% to 80%)
same,Degree of healing Distal trochlear sulcus,[1]; [10],+++ (Degree of healing is from 80% to 100%)
same,Degree of healing Medial trochlear ridge,[1]; [10],++ (Degree of healing is from 60% to 80%); also recorded: +++ (Degree of healing is from 80% to 100%)
same,Degree of healing Proximal trochlear sulcus,[1]; [10],++ (Degree of healing is from 60% to 80%); also recorded: +++ (Degree of healing is from 80% to 100%)
same,"average value of quantified data (degree of healing, points)","[1]; Example 2, control group 5.33",8.17
same,muscle weight of the femoral biceps muscle (in words),[2]; Example 1,little decrease
same,muscle weight of the lateral vastus muscle (in words),[2]; Example 1,decreased slightly
same,"Muscle weight ratio Lateral vastus muscle, Mean","[2]; Example 1, control 88.84",95.93%
same,"Muscle weight ratio Femoral biceps muscle, Mean","[2]; Example 1, control 88.99",100.08%
same,Muscle weight ratio Femoral biceps muscle,"[2]; Example 1, female rabbits",100.18% and 98.45% and 93.46%
same,Muscle weight ratio Lateral vastus muscle,"[2]; Example 1, female rabbits",105.30% and 96.92% and 80.89%
same,Muscle weight ratio Femoral biceps muscle,"[2]; Example 1, male rabbits",94.80% and 106.36% and 107.22%
same,Muscle weight ratio Lateral vastus muscle,"[2]; Example 1, male rabbits",93.29% and 95.10% and 104.10%
same,muscle weight of the femoral biceps muscle (in words),[2]; Example 2,little decrease
same,muscle weight of the lateral vastus muscle (in words),[2]; Example 2,little decrease
same,"Muscle weight ratio Femoral biceps muscle, Mean","[2]; Example 2, control 83.80",100.59%
same,"Muscle weight ratio Lateral vastus muscle, Mean","[2]; Example 2, control 91.91",98.48%
same,Muscle weight ratio Femoral biceps muscle,"[2]; Example 2, female rabbits",90.91% and 111.86% and 93.42%
same,Muscle weight ratio Lateral vastus muscle,"[2]; Example 2, female rabbits",94.98% and 98.56% and 92.43%
same,Muscle weight ratio Femoral biceps muscle,"[2]; Example 2, male rabbits",101.37% and 104.66% and 101.31%
same,Muscle weight ratio Lateral vastus muscle,"[2]; Example 2, male rabbits",84.93% and 111.10% and 108.90%
same,Body weight changes vs control group,"[3]; rabbit, in vivo",almost the same as that of the control group
same,body weight change during test period vs control group,"[3]; rabbit, in vivo",significant difference was not observed
same,"general conditions (diarrhea, appetite, hair gloss or coat color)","[3]; rabbit, in vivo, 100 mg/kg",marked change was not observed
same,amount of glycosaminoglycan produced compared to the control group,Rabbit chondrocytes,119.8%
